“Also recorded” adds a separate entry of the source.
How the values were obtained:
[1] = molecular target: T1, GCase in fibroblasts bearing the L444P/L444P mutations (Homo sapiens, UniProt P04062, L483P); assay: Pharmacological chaperoning activity in L444P/L444P Gaucher fibroblasts; format: cell-based; details: for cell viability: 50 µM, 4 days; for GCase enzymatic activity rescue: 4 days incubation, 5 nM to 10 μM
T1 construct: fibroblasts derived from Gaucher patients bearing the N370S/RecNcil and L444P/L444P mutations; host or cells: fibroblasts from Gaucher disease patients, L444P/L444P
T1 sequence (P04062 40-536 L483P): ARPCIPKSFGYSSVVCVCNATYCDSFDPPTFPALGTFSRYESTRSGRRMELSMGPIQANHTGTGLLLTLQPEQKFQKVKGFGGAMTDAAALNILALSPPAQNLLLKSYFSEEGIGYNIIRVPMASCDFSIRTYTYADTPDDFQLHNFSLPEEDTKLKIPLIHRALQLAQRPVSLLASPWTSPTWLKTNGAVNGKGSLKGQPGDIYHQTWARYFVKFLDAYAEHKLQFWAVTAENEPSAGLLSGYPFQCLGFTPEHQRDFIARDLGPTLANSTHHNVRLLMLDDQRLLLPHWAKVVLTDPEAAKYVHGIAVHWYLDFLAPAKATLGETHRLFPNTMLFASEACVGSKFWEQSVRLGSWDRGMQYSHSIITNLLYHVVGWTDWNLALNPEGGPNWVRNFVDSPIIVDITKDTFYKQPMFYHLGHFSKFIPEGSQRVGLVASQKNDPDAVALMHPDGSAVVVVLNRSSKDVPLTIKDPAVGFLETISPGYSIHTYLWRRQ
Description: The ability of compounds 14 and 15 to enhance the activity of GCase after incubation (4 days) with fibroblasts bearing the selected mutations was evaluated. The experiments were performed using fibroblasts derived from Gaucher patients bearing the N370S/RecNcil and L444P/L444P mutations (see the Supporting Information section).
Fibroblasts with the N370S/RecNcil (or L444P/L444P) mutation from Gaucher disease patients were obtained from the “Cell line and DNA Biobank from patients affected by Genetic Diseases” (Gaslini Hospital, Genova, Italy). Fibroblast cells (15.0 × 10^4) were seeded in T25 flasks with DMEM supplemented with fetal bovine serum (10%), penicillin/streptomycin (1%), and glutamine (1%) and incubated at 37 °C with 5% CO2 for 24 h. The medium was removed, and fresh medium containing the compounds (14, 15 and 33·HCl) was added to the cells and incubated for 4 days. The medium was removed, and the cells were washed with PBS and detached with trypsin to obtain cell pellets, which were washed four times with PBS, frozen, and lysed by sonication in water. Enzyme activity was measured as reported above. Reported data are mean S.D. (n = 2).
Figure S52. Fibroblasts derived from GD patients bearing L444P/L444P mutations were incubated without (control, ctrl) or with 7 different concentrations (5 nM, 10 nM, 50 nM, 100 nM, 1 µM, 10 µM, 50 µM) of compounds 14 or 15. After 4 days, the flasks containing cells incubated with 50 µM […]
other concentrations, the GCase activity was determined in lysates from treated fibroblasts. Reported data are mean S.D. (n=2).
(also on this page, place not known: beta glucosidase activity (nmol/mg/h) beta glucosidase activity (nmol/mg/h))

[2] = molecular target: T2, amyloglucosidase EC 3.2.1.3 (Aspergillus niger, UniProt P69328); assay: Commercial glycosidase screening; format: biochemical; details: read-out: % Inhibition at 0.1 mM
T2 construct: purchased
T2 sequence (P69328 25-640): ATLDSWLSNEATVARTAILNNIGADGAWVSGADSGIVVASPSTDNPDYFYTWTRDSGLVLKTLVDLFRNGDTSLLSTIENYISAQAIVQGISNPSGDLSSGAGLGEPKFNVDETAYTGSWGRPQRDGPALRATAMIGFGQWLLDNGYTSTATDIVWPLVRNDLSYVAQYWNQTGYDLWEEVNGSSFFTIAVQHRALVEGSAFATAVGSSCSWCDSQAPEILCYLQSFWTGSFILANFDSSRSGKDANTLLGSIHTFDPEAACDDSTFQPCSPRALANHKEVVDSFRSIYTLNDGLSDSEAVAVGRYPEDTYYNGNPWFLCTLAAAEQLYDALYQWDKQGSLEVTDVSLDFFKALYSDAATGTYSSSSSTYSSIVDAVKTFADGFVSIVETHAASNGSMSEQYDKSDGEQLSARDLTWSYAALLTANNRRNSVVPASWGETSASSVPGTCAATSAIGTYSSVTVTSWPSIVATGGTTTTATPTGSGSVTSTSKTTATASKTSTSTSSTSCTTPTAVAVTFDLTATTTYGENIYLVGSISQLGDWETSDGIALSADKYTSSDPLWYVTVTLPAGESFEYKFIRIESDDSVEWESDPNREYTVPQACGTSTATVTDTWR
Description: (§1) Preliminary biological evaluation of compounds 14 and 15 (at 100 μM inhibitor concentration) was performed toward a panel of 12 commercial glycosidases (α-L-fucosidase EC 3.2.1.51 from Homo sapiens, α-galactosidase EC 3.2.1.22 from coffee beans, β-galactosidases EC 3.2.1.23 from Escherichia coli and Aspergillus oryzae, α-glucosidases EC 3.2.1.20 from yeast and rice, amyloglucosidase EC 3.2.1.3 from Aspergillus niger, β-glucosidase EC 3.2.1.21 from almonds, α-mannosidase EC 3.2.1.24 from Jack beans, β-mannosidase EC 3.2.1.25 from snail, and β-N-acetylglucosaminidases EC 3.2.1.52 from Jack beans and bovine kidney).
(§2) The percentage (%) of inhibition for compounds 14 and 15 toward the corresponding glycosidase was determined by quadruplicate in the presence of 100 μM of the inhibitor on the well. Each enzymatic assay (final volume 0.12 mL) contains 0.01–0.5 units/mL of the enzyme (with previous calibration) and 4.2 mM aqueous solution of the appropriate p-nitrophenyl glycopyranoside (substrate) buffered to the optimal pH of the enzyme. Enzyme and inhibitor were pre-incubated for 5 min at rt, and the reaction started by addition of the substrate. After 20 min of incubation at 37 °C, the reaction was stopped by addition of 0.1 mL of sodium borate solution (pH 9.8). The p-nitrophenolate formed was measured by visible absorption spectroscopy at 405 nm (Asys Expert 96 spectrophotometer). Under these conditions, the p-nitrophenolate released led to optical densities linear with both reaction time and concentration of the enzyme.
(§3) Biological screening towards commercial glycosidases
(§4) α-L-fucosidase EC 3.2.1.51
(§5) α-galactosidase EC 3.2.1.22 […]
(§6) β-glucosidase EC 3.2.1.21
(§7) α-mannosidase EC 3.2.1.24
(§8) β-mannosidase EC 3.2.1.25 […]
(§9) “-“: no inhibition (or less than 15%) detected.

[3] = test system: α-L-fucosidase EC 3.2.1.51; assay: Commercial glycosidase screening; format: biochemical; details: Homo sapiens
Description: as §1, §2, §3, §4, §5, §6, §7, §8, §9

[4] = molecular target: T3, α-galactosidase EC 3.2.1.22 (Coffea arabica, UniProt Q42656); assay: Commercial glycosidase screening; format: biochemical; details: coffee beans, read-out: % Inhibition at 0.1 mM
T3 construct: purchased
T3 sequence (Q42656 16-378): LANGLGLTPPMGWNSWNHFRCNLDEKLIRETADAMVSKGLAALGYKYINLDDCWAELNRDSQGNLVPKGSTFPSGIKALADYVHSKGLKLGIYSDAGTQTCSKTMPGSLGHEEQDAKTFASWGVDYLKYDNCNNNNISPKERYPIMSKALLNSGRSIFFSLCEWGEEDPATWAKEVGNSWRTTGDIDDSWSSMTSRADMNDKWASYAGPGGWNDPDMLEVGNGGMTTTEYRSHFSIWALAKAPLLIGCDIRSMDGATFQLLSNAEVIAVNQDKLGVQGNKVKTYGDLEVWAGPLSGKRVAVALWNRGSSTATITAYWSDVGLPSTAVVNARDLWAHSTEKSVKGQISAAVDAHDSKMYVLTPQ
Description: as §1, §2, §3, §4, §5, §6, §7, §8, §9

[5] = molecular target: T4, α-mannosidase EC 3.2.1.24 (Canavalia ensiformis, UniProt C0HJB3); assay: Commercial glycosidase screening; format: biochemical; details: Jack beans, read-out: % Inhibition at 0.1 mM
T4 construct: purchased
T4 sequence (C0HJB3 whole entry): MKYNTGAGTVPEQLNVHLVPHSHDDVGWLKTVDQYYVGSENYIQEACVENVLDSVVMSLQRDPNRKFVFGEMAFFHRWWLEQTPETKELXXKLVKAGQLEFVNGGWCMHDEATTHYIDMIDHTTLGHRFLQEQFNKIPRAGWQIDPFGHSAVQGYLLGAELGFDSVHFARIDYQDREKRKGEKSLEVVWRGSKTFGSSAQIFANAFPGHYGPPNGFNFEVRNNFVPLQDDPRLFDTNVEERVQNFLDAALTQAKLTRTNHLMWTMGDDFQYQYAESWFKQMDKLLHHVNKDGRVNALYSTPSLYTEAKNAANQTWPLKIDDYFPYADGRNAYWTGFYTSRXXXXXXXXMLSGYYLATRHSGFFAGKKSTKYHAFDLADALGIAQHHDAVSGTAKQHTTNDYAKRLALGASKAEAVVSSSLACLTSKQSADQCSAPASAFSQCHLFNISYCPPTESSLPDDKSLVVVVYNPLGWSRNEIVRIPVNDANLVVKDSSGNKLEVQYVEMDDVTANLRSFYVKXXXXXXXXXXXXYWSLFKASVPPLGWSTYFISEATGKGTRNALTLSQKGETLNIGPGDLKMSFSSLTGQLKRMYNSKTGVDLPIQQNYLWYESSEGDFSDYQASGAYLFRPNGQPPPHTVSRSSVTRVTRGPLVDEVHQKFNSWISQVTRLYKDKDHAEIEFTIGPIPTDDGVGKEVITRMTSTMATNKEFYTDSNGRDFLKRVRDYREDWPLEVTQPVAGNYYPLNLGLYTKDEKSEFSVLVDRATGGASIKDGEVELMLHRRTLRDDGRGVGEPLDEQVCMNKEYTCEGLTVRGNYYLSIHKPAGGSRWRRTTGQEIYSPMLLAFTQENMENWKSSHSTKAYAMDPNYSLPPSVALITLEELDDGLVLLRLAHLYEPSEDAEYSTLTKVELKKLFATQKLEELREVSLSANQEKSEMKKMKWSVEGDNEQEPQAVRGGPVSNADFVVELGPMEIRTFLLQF
Description: as §1, §2, §3, §4, §5, §6, §7, §8, §9

[6] = test system: β-glucosidase EC 3.2.1.21; assay: Commercial glycosidase screening; format: biochemical; details: almonds
Description: as §1, §2, §3, §4, §5, §6, §7, §8, §9

[7] = test system: β-mannosidase EC 3.2.1.25; assay: Commercial glycosidase screening; format: biochemical; details: snail
Description: as §1, §2, §3, §4, §5, §6, §7, §8, §9

[8] = test system: α-glucosidase EC 3.2.1.20; assay: Commercial glycosidase screening; format: biochemical
Description: as §1, §2, §3, §4
(§10) α-galactosidase EC 3.2.1.22
(§11) β-galactosidase EC 3.2.1.23
(§12) α-glucosidase EC 3.2.1.20
(§13) amyloglucosidase EC 3.2.1.3
as §6, §7
(§14) β-mannosidase EC 3.2.1.25
(§15) β-N-acetylglucosaminidase EC 3.2.1.52
as §9

[9] = test system: β-N-acetylglucosaminidase EC 3.2.1.52; assay: Commercial glycosidase screening; format: biochemical
Description: as §1, §2, §3, §4, §10, §11, §12, §13, §6, §7, §14, §15, §9

[10] = molecular target: T5, β-galactosidase EC 3.2.1.23 (Aspergillus oryzae, UniProt Q2UCU3); assay: Commercial glycosidase screening; format: biochemical; details: read-out: % Inhibition at 0.1 mM
T5 construct: purchased
T5 sequence (Q2UCU3 19-1005): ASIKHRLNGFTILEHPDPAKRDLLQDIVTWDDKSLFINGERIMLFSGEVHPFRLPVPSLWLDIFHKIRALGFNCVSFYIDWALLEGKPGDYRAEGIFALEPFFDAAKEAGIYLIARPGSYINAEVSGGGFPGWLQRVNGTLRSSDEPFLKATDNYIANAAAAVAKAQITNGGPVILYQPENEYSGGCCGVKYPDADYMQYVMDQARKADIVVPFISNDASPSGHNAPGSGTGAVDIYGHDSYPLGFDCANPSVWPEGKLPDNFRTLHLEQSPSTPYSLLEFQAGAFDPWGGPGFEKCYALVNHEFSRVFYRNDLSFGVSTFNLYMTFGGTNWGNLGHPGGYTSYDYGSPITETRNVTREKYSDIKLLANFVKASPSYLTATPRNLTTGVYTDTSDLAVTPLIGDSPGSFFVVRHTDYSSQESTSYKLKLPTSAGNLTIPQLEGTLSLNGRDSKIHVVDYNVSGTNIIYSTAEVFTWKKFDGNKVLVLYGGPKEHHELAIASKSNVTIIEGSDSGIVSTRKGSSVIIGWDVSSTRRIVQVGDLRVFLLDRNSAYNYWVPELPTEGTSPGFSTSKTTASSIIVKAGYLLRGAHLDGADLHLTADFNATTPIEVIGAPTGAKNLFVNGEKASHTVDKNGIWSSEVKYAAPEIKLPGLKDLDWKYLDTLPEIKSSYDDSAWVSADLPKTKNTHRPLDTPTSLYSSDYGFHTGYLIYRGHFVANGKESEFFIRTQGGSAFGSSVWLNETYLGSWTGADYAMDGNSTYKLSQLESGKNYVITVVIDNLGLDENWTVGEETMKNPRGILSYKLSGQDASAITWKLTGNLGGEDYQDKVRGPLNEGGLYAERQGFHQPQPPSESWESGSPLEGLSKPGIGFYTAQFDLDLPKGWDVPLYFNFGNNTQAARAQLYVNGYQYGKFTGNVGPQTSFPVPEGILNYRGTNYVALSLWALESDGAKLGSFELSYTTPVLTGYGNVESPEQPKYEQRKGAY
Description: as §1, §2, §3, §4, §10, §11, §12, §13, §6, §7, §14, §15, §9

[11] = molecular target: T6, β-galactosidase EC 3.2.1.23 (Escherichia coli, UniProt P00722); assay: Commercial glycosidase screening; format: biochemical; details: read-out: % Inhibition at 0.1 mM
T6 construct: purchased
T6 sequence (P00722 2-1024): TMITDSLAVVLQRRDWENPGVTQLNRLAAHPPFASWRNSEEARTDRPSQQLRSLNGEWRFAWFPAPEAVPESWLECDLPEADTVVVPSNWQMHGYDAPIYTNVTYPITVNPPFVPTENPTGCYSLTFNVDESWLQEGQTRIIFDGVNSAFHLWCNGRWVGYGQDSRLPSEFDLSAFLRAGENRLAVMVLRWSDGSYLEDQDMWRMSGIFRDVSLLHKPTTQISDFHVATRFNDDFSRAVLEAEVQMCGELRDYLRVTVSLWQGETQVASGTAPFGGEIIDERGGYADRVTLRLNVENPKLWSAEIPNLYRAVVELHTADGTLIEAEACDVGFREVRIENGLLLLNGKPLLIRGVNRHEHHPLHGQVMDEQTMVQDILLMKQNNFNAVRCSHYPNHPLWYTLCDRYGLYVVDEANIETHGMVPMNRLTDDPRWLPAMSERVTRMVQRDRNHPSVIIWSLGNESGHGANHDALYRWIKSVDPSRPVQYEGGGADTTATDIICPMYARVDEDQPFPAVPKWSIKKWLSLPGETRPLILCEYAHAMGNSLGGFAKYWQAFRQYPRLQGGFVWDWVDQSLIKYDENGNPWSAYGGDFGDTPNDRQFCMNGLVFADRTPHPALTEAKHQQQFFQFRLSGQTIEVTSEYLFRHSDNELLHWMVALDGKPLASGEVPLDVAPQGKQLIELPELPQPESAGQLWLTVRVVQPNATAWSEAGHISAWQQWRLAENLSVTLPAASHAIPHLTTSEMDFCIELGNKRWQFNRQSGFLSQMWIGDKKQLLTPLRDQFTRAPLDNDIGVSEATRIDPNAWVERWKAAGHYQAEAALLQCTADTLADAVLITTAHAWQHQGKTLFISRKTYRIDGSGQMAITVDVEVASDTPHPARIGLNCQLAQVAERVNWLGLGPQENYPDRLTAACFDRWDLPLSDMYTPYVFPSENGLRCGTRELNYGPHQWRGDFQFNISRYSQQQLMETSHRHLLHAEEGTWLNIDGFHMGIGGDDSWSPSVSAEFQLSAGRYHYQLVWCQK
Description: as §1, §2, §3, §4, §10, §11, §12, §13, §6, §7, §14, §15, §9

Structure (SMILES) | cell viability [1] | GCase enzymatic activity rescue [1] | inhibition at 100 µM [2] | % Inhibition at 0.1 mM [3] | inhibition at 100 µM [4] | inhibition at 100 µM [5] | % Inhibition at 0.1 mM [6] | % Inhibition at 0.1 mM [7] | % Inhibition at 0.1 mM ([8]; rice) | % Inhibition at 0.1 mM ([8]; yeast) | % Inhibition at 0.1 mM ([9]; Jack beans) | % Inhibition at 0.1 mM ([9]; bovine kidney) | inhibition at 100 µM [10] | inhibition at 100 µM [11]
CCCCCCCC[C@H]1[C@@H](O)[C@H](O)[C@H](O)CN1CCCCCCCC [compound 14, (2S,3R,4R,5R)-1,2-Dioctylpiperidine-3,4,5-triol] | low cell viability | no enzymatic activity rescue; also recorded: no GCase activity enhancements | < 15% | - (“-“: no inhibition (or less than 15%) detected.) | < 15% | < 15% | 30% | - (“-“: no inhibition (or less than 15%) detected.) | - (“-“: no inhibition (or less than 15%) detected.) | - (“-“: no inhibition (or less than 15%) detected.) | - (“-“: no inhibition (or less than 15%) detected.) | - (“-“: no inhibition (or less than 15%) detected.) | < 15% | < 15%
CCCCCCCC[C@@H]1[C@@H](O)[C@H](O)[C@H](O)CN1CCCCCCCC [compound 15, (2R,3R,4R,5R)-1,2-Dioctylpiperidine-3,4,5-triol] | low cell viability | no enzymatic activity rescue; also recorded: no GCase activity enhancements | < 15% | - (“-“: no inhibition (or less than 15%) detected.) | < 15% | < 15% | - (“-“: no inhibition (or less than 15%) detected.) | - (“-“: no inhibition (or less than 15%) detected.) | - (“-“: no inhibition (or less than 15%) detected.) | - (“-“: no inhibition (or less than 15%) detected.) | - (“-“: no inhibition (or less than 15%) detected.) | - (“-“: no inhibition (or less than 15%) detected.) | < 15% | < 15%

Reference: PMC8453635, “Piperidine Azasugars Bearing Lipophilic Chains: Stereoselective Synthesis and Biological Activity as Inhibitors of Glucocerebrosidase (GCase)” (The Journal of Organic Chemistry, 2021)
